# Results as given in ChEMBL document CHEMBL3588788, “Structure-activity relationship of hybrids of Cinchona alkaloids and bile acids with in vitro antiplasmodial and antitrypanosomal activities” (Eur J Med Chem, 2015).
# Key:
# [1] = test system: Trypanosoma brucei brucei; test: Potency index, ratio of IC50 for QN to IC50 for test compound against Trypanosoma brucei brucei Lister 427 bloodstream forms by microtiter plate based assay; type: functional
# Plasmodium falciparum [2] = test: Antiplasmodial activity against Plasmodium falciparum 3D7 assessed as reduction in parasite viability by parasite lactate dehydrogenase assay; type: functional, organism-based
# [3] = test system: Trypanosoma brucei brucei; test: Antitrypanosomal activity against Trypanosoma brucei brucei Lister 427 bloodstream forms by microtiter plate based assay; type: functional, organism-based
# [4] = Cytotoxicity against human WI38 cells by MTT assay; type: cell-based, WI-38; settings: Homo sapiens, WI-38; read-out: IC50
# [5] = Selectivity index, ratio of IC50 against human WI38 cells to IC50 for Plasmodium falciparum 3D7; type: toxicity, cell-based, WI-38; settings: read-out: Ratio IC50
# in vitro = settings: human, WI38 cells
# Description: Selectivity index, ratio of IC50 against human WI38 cells to IC50 for Trypanosoma brucei brucei Lister 427 bloodstream forms
# Plasmodium falciparum [6] = test: Potency index, ratio of IC50 for QN to IC50 for test compound against Plasmodium falciparum 3D7 by parasite lactate dehydrogenase assay; type: functional
# Plasmodium falciparum [7] = test: Potency index, ratio of IC50 for QND to IC50 for test compound against Plasmodium falciparum 3D7 by parasite lactate dehydrogenase assay; type: functional
# [8] = test system: Trypanosoma brucei brucei; test: Potency index, ratio of IC50 for QND to IC50 for test compound against Trypanosoma brucei brucei Lister 427 bloodstream forms by microtiter plate based assay; type: functional
Structure (SMILES),IC50 [3] [nM],Ratio IC50 [1],IC50 (Plasmodium falciparum [2]) [nM],IC50 [4] [nM],selectivity ratio [5],selectivity ratio (in vitro),Ratio IC50 (Plasmodium falciparum [6]),Ratio IC50 (Plasmodium falciparum [7]),Ratio IC50 [8]
C=C[C@H]1CN2CC[C@H]1C[C@@H]2[C@@H](O)c1cc(CC[C@@H](C)[C@H]2CC[C@H]3[C@@H]4[C@H](OC(C)=O)[C@H](OC(C)=O)[C@@H]5C[C@H](OC(C)=O)CC[C@]5(C)[C@H]4CC[C@]23C)nc2ccc(OC)cc12,560,–,73.2,3290,45,5.8,–,2.7,46.2
C=C[C@H]1CN2CC[C@H]1C[C@@H]2[C@@H](O)c1cc(CC[C@@H](C)[C@H]2CC[C@H]3[C@@H]4[C@H](OC(C)=O)C[C@@H]5C[C@H](OC(C)=O)CC[C@]5(C)[C@H]4C[C@H](OC(C)=O)[C@]23C)nc2ccc(OC)cc12,530,–,83.8,4660,56,8.7,–,2.3,48.8
C=C[C@H]1CN2CC[C@H]1C[C@@H]2[C@@H](O)c1cc(CC[C@@H](C)[C@H]2CC[C@H]3[C@@H]4[C@H](O)C[C@@H]5C[C@H](O)CC[C@]5(C)[C@H]4C[C@H](O)[C@]23C)nc2ccc(OC)cc12,1210,–,700,11800,17,9.8,–,0.3,21.6

# Second part, led by results:
IC50 [3] [nM],Structure (SMILES),Ratio IC50 [1],IC50 (Plasmodium falciparum [2]) [nM],IC50 [4] [nM],selectivity ratio [5],selectivity ratio (in vitro),Ratio IC50 (Plasmodium falciparum [6]),Ratio IC50 (Plasmodium falciparum [7]),Ratio IC50 [8]
1490,C=C[C@H]1CN2CC[C@H]1C[C@H]2[C@H](O)c1cc(CC[C@@H](C)[C@H]2CC[C@H]3[C@@H]4C[C@H](OC(C)=O)[C@@H]5C[C@H](OC(C)=O)CC[C@]5(C)[C@H]4CC[C@]23C)nc2ccc(OC)cc12,14.3,460,5860,13,3.9,1.4,–,–
690,C=C[C@H]1CN2CC[C@H]1C[C@@H]2[C@@H](O)c1cc(CC[C@@H](C)[C@H]2CC[C@H]3[C@@H]4CC[C@@H]5C[C@H](OC(C)=O)CC[C@]5(C)[C@H]4C[C@H](OC(C)=O)[C@]23C)nc2ccc(OC)cc12,–,195,5330,27,7.7,–,1,37.5
890,C=C[C@H]1CN2CC[C@H]1C[C@@H]2[C@@H](O)c1cc(CC[C@@H](C)[C@H]2CC[C@H]3[C@@H]4C[C@H](O)[C@@H]5C[C@H](O)CC[C@]5(C)[C@H]4CC[C@]23C)nc2ccc(OC)cc12,–,124,2200,18,2.5,–,1.6,29.2
770,C=C[C@H]1CN2CC[C@H]1C[C@@H]2[C@@H](O)c1cc(CC[C@@H](C)[C@H]2CC[C@H]3[C@@H]4[C@H](O)[C@H](O)[C@@H]5C[C@H](O)CC[C@]5(C)[C@H]4CC[C@]23C)nc2ccc(OC)cc12,–,170,4750,27.9,6.2,–,1.1,33.9
610,C=C[C@H]1CN2CC[C@H]1C[C@@H]2[C@@H](O)c1cc(CC[C@@H](C)[C@H]2CC[C@H]3[C@@H]4CC[C@@H]5C[C@H](O)CC[C@]5(C)[C@H]4C[C@H](O)[C@]23C)nc2ccc(OC)cc12,–,281,4300,15,7.1,–,0.7,42.7
